The values that follow come from US9096624B2 (OSI Pharmaceuticals, LLC, priority 2009, dated 2015).

Test [1] addresses T1, FAK (Homo sapiens, UniProt Q05397). Put plainly: Cell-based capture ELISA for inhibition of FAK autophosphorylation [pY397] in MiaPaCa2 cells. To be noted: MIA-PaCa2 cells, read-out: Mean FAK Cell Mechanistic IC50 + 50% mP MIA-PaCa2. The protocol: Cell-Based Assays for Inhibition of FAK Autophosphorylation: MiaPaCa2 and U87MG
ELISA kit from Invitrogen (KHO0441).
Reagents Provided in Biosource FAK [pY397]
The cells were then suspended in cell assay medium.

The target of test [2] is T1, FAK. Put plainly: biochemical.

T1 sequence (Q05397 whole entry): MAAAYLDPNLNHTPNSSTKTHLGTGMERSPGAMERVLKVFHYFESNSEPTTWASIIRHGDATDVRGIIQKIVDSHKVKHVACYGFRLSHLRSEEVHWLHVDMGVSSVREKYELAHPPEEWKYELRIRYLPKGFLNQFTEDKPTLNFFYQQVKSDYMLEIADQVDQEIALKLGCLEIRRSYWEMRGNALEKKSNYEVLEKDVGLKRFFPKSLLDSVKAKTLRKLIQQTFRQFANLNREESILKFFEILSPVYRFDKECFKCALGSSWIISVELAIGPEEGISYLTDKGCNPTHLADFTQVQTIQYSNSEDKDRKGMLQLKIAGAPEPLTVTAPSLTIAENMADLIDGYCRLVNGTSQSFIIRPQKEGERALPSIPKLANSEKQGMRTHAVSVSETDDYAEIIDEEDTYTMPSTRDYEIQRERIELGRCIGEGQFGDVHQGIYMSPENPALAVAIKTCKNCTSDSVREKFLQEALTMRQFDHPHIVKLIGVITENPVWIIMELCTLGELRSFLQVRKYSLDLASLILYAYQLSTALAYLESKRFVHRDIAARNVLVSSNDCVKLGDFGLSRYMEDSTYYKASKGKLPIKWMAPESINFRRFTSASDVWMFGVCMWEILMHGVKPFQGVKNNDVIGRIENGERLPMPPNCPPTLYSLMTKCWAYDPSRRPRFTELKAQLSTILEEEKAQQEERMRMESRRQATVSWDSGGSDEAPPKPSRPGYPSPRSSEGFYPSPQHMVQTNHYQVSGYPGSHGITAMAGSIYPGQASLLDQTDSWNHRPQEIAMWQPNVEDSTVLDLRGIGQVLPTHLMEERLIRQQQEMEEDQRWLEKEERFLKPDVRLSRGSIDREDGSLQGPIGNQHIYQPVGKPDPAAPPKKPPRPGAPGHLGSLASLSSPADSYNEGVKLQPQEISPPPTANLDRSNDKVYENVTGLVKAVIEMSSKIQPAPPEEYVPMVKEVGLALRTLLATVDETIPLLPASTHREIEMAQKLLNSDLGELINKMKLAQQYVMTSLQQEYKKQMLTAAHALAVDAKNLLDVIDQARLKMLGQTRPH

For `CCOP(=O)(Cc1ccc(Nc2ncc(C(F)(F)F)c(Nc3ccc(N4CC[C@H](O)C4)c4c3C(=O)N(C)C4)n2)c(OC)c1)OCC` [Example 84, Diethyl (4-{[4-({7-[(3S)-3-hydroxypyrrolidin-1-yl]-2-methyl-3-oxo-2,3-dihydro-1H-isoindol-4-yl}amino)-5-(trifluoromethyl)pyrimidin-2-yl]amino}-3-methoxybenzyl)phosphonate], the IC50 in test [1] (+ 50% mouse plasma (Table 2)) and in test [2] was < 1000 nM each time.
`CCOP(=O)(Cc1ccc(Nc2ncc(C(F)(F)F)c(Nc3ccc(N4CCC(O)CC4)c4c3C(=O)N(C)C4)n2)c(OC)c1)OCC` [Example 85, Diethyl (4-{[4-{[7-(4-hydroxypiperidin-1-yl)-2-methyl-3-oxo-2,3-dihydro-1H-isoindol-4-yl]amino}-5-(trifluoromethyl)pyrimidin-2-yl]amino}-3-methoxybenzyl)phosphonate]: the 50% inhibitory concentration (IC50) in test [1] (+ 50% mouse plasma (Table 2)) and in test [2] was < 1000 nM throughout.
With `CCOP(=O)(Cc1ccc(Nc2ncc(C(F)(F)F)c(Nc3ccc(N4CCCC(O)C4)c4c3C(=O)N(C)C4)n2)c(OC)c1)OCC` (stereo not drawn) [Example 86, Diethyl (4-{[4-{[7-(3-hydroxypiperidin-1-yl)-2-methyl-3-oxo-2,3-dihydro-1H-isoindol-4-yl]amino}-5-(trifluoromethyl)pyrimidin-2-yl]amino}-3-methoxybenzyl)phosphonate], the IC50 in test [1] (+ 50% mouse plasma (Table 2)) and in test [2] was < 1000 nM each time.
Regarding `CCOC(=O)[C@H]1CC[C@@H](c2ccc(Nc3nc(Nc4ccc(CP(=O)(OCC)OCC)cc4OC)ncc3C(F)(F)F)c3c2CN(C)C3=O)CC1` [Example 87, Ethyl cis-4-(7-{[2-({4-[(diethoxyphosphoryl)methyl]-2-methoxyphenyl}amino)-5-(trifluoromethyl)pyrimidin-4-yl]amino}-2-methyl-1-oxo-2,3-dihydro-1H-isoindol-4-yl)cyclohexanecarboxylate], the IC50 in test [1] (+ 50% mouse plasma (Table 2)) and in test [2] was < 1000 nM each time.
On to `CCOC(=O)[C@H]1CC[C@H](c2ccc(Nc3nc(Nc4ccc(CP(=O)(OCC)OCC)cc4OC)ncc3C(F)(F)F)c3c2CN(C)C3=O)CC1` [Example 88, Ethyl trans-4-(7-{[2-({4-[(diethoxyphosphoryl)methyl]-2-methoxyphenyl}amino)-5-(trifluoromethyl)pyrimidin-4-yl]amino}-2-methyl-1-oxo-2,3-dihydro-1H-isoindol-4-yl)cyclohexanecarboxylate], for which the IC50 in test [1] (+ 50% mouse plasma (Table 2)) and in test [2] was < 1000 nM throughout.
On to `CCOP(=O)(Cc1ccc(Nc2ncc(C(F)(F)F)c(Nc3ccc([C@H]4CC[C@H](C(=O)O)CC4)c4c3C(=O)N(C)C4)n2)c(OC)c1)OCC` [Example 90, Trans-4-(7-{[2-({4-[(diethoxyphosphoryl)methyl]-2-methoxyphenyl}amino)-5-(trifluoromethyl)pyrimidin-4-yl]amino}-2-methyl-1-oxo-2,3-dihydro-1H-isoindol-4-yl)cyclohexanecarboxylic acid], for which the IC50 in test [1] (+ 50% mouse plasma (Table 2)) and in test [2] was < 1000 nM throughout.
As to `CCOP(=O)(Cc1ccc(Nc2ncc(C(F)(F)F)c(Nc3ccc([C@H]4CC[C@@H](O)CC4)c4c3C(=O)N(C)C4)n2)c(OC)c1)OCC` [Example 94, Diethyl (4-{[4-{[7-(cis-4-hydroxycyclohexyl)-2-methyl-3-oxo-2,3-dihydro-1H-isoindol-4-yl]amino}-5-(trifluoromethyl)pyrimidin-2-yl]amino}-3-methoxybenzyl)phosphonate], the concentration for half-maximal inhibition (IC50) in test [1] (+ 50% mouse plasma (Table 2)) and in test [2] was < 1000 nM throughout.
`CCOP(=O)(Cc1ccc(Nc2ncc(C(F)(F)F)c(Nc3ccc([C@H]4CC[C@H](N5CCN(C)CC5)CC4)c4c3C(=O)N(C)C4)n2)c(OC)c1)OCC` [Example 96, Diethyl (3-methoxy-4-{[4-({2-methyl-7-[trans-4-(4-methylpiperazin-1-yl)cyclohexyl]-3-oxo-2,3-dihydro-1H-isoindol-4-yl}amino)-5-(trifluoromethyl)pyrimidin-2-yl]amino}benzyl)phosphonate]: the 50% inhibitory concentration (IC50) in test [1] (+ 50% mouse plasma (Table 2)) and in test [2] was < 1000 nM in each case.
In the case of `CCOP(=O)(Cc1ccc(Nc2ncc(C(F)(F)F)c(Nc3ccc(-c4cnn(C5CC(O)C5)c4)c4c3C(=O)N(C)C4)n2)c(OC)c1)OCC` (stereo not drawn) [Example 100, Diethyl (4-{[4-({7-[1-(3-hydroxycyclobutyl)-1H-pyrazol-4-yl]-2-methyl-3-oxo-2,3-dihydro-1H-isoindol-4-yl}amino)-5-(trifluoromethyl)pyrimidin-2-yl]amino}-3-methoxybenzyl)phosphonate], the IC50 in test [1] (+ 50% mouse plasma (Table 3)) and in test [2] was < 1000 nM in each case.
On to `CCOP(=O)(Cc1ccc(Nc2ncc(C(F)(F)F)c(Nc3ccc(-c4cnn(C[C@H](O)CO)c4)c4c3C(=O)N(C)C4)n2)cc1)OCC` [Example 101, Diethyl [4-({4-[(7-{1-[(2S)-2,3-dihydroxypropyl]-1H-pyrazol-4-yl}-2-methyl-3-oxo-2,3-dihydro-1H-isoindol-4-yl)amino]-5-(trifluoromethyl)pyrimidin-2-yl}amino)benzyl]phosphonate], for which the IC50 in test [1] (+ 50% mouse plasma (Table 3)) and in test [2] was < 1000 nM each time.
Consider `CCOP(=O)(Cc1ccc(Nc2ncc(C(F)(F)F)c(Nc3ccc(F)cc3C(=O)NC)n2)c(OC)c1)OCC` [Example 102, Diethyl (4-{[4-{[4-fluoro-2-(methylcarbamoyl)phenyl]amino}-5-(trifluoromethyl)pyrimidin-2-yl]amino}-3-methoxybenzyl)phosphonate], for which the IC50 in test [1] (+ 50% mouse plasma (Table 3)) and in test [2] was < 1000 nM in each case.
With `CCOP(=O)(Cc1ccc(Nc2ncc(C(F)(F)F)c(Nc3cc(F)ccc3C(=O)NC)n2)c(OC)c1)OCC` [Example 103, Diethyl (4-{[4-{[5-fluoro-2-(methylcarbamoyl)phenyl]amino}-5-(trifluoromethyl)pyrimidin-2-yl]amino}-3-methoxybenzyl)phosphonate], the IC50 in test [1] (+ 50% mouse plasma (Table 3)) and in test [2] was < 1000 nM in each case.
In the case of `CCOP(=O)(Cc1ccc(Nc2ncc(C(F)(F)F)c(Nc3ccccc3C(=O)NC)n2)c(Cl)c1)OCC` [Example 104, Diethyl (3-chloro-4-{[4-{[2-(methylcarbamoyl)phenyl]amino}-5-(trifluoromethyl)pyrimidin-2-yl]amino}benzyl)phosphonate], the IC50 in test [1] (+ 50% mouse plasma (Table 3)) and in test [2] was < 1000 nM each time.
In the case of `CCOP(=O)(Cc1ccc(Nc2ncc(C(F)(F)F)c(Nc3cccc4c3C(=O)N(C)C4=O)n2)c(OC)c1)OCC` [Example 105, Diethyl [3-methoxy-4-({4-[(2-methyl-1,3-dioxo-2,3-dihydro-1H-isoindol-4-yl)amino]-5-(trifluoromethyl)pyrimidin-2-yl}amino)benzyl]phosphonate], the IC50 in test [1] (+ 50% mouse plasma (Table 3)) was 1000 to 10000 nM; in test [2], < 1000 nM.
For `CCOP(=O)(Cc1ccc(Nc2ncc(C(F)(F)F)c(Nc3ccc(Br)cc3C(=O)NC)n2)c(OC)c1)OCC` [Example 107, Diethyl (4-{[4-{[4-bromo-2-(methylcarbamoyl)phenyl]amino}-5-(trifluoromethyl)pyrimidin-2-yl]amino}-3-methoxybenzyl)phosphonate] the same measures were < 1000 nM and < 1000 nM.
For `CCOP(=O)(Cc1ccc(Nc2ncc(C(F)(F)F)c(Nc3ccc(CN4CCCC4)c4c3C(=O)N(C)C4)n2)cc1)OCC` [Example 109, Diethyl (4-{[4-{[2-methyl-3-oxo-7-(pyrrolidin-1-ylmethyl)-2,3-dihydro-1H-isoindol-4-yl]amino}-5-(trifluoromethyl)pyrimidin-2-yl]amino}benzyl)phosphonate] the same measures were 1000 to 10000 nM and < 1000 nM.
The matching figures for `CCOP(=O)(Cc1ccc(Nc2ncc(C(F)(F)F)c(Nc3ccc(CN4CCCC4)c4c3C(=O)N(C)C4)n2)c(OC)c1)OCC` [Example 110, Diethyl (3-methoxy-4-{[4-{[2-methyl-3-oxo-7-(pyrrolidin-1-ylmethyl)-2,3-dihydro-1H-isoindol-4-yl]amino}-5-(trifluoromethyl)pyrimidin-2-yl]amino}benzyl)phosphonate]: < 1000 nM and < 1000 nM.
With `CNC(=O)c1ccccc1Nc1nc(Nc2ccc(CP(=O)(OCCO)OCCO)cc2OC)ncc1C(F)(F)F` [Example 113, Bis(2-hydroxyethyl)(3-methoxy-4-{[4-{[2-(methylcarbamoyl)phenyl]amino}-5-(trifluoromethyl)pyrimidin-2-yl]amino}benzyl)phosphonate], the IC50 in test [1] (+ 50% mouse plasma (Table 3)) and in test [2] was < 1000 nM each time.
`CNC(=O)c1ccccc1Nc1nc(Nc2ccc(CP(=O)(OCC(F)(F)F)OCC(F)(F)F)cc2OC)ncc1C(F)(F)F` [Example 114, Bis(2,2,2-trifluoroethyl)(3-methoxy-4-{[4-{[2-(methylcarbamoyl)phenyl]amino}-5-(trifluoromethyl)pyrimidin-2-yl]amino}benzyl)phosphonate]: the IC50 in test [1] (+ 50% mouse plasma (Table 3)) and in test [2] was < 1000 nM in each case.
`CCOP(=O)(OCC)C(OCC(F)(F)F)c1ccc(Nc2ncc(C(F)(F)F)c(Nc3ccccc3C(=O)NC)n2)cc1` (stereo not drawn) [Example 115, Diethyl [(4-{[4-{[2-(methylcarbamoyl)phenyl]amino}-5-(trifluoromethyl)pyrimidin-2-yl]amino}phenyl)(2,2,2-trifluoroethoxy)methyl]phosphonate]: the IC50 was 1000 to 10000 nM in test [1] (+ 50% mouse plasma (Table 3)) and < 1000 nM in test [2].
For `CCOP(=O)(Cc1ccc(Nc2ncc(C(F)(F)F)c(Nc3ccc(C(=O)N4CCCC4)c4c3C(=O)N(C)C4)n2)cc1)OCC` [Example 116, Diethyl (4-{[4-{[2-methyl-3-oxo-7-(pyrrolidin-1-ylcarbonyl)-2,3-dihydro-1H-isoindol-4-yl]amino}-5-(trifluoromethyl)pyrimidin-2-yl]amino}benzyl)phosphonate] the same measures were 1000 to 10000 nM and < 1000 nM.
